Assay results published in patent publication US20150087627A1, “COMBINATION OF KINASE INHIBITORS AND USES THEREOF” (Intellikine LLC, priority 2011, published 2015).

Key:
Assay type in all cases: biochemical
PI3K α (p110α/p85α) = molecular target: T1, PI3K α (p110α/p85α) (Homo sapiens, UniProt P42336); test: PI 3-Kinase (human) HTRF assay, PI3K α; conditions: read-out: PI3K α IC50
T1 construct: purchased Upstate / Millipore Corporation

PI3K δ = molecular target: T2, PI3K δ (Homo sapiens, UniProt O00329); test: PI 3-Kinase (human) HTRF assay, PI3K δ; conditions: read-out: PI3K δ IC50
T2 construct: purchased Upstate / Millipore Corporation

mTOR = molecular target: T3, mTOR (Homo sapiens, UniProt P42345); test: mTOR kinase inhibition assay (radiometric or LanthaScreen TR-FRET); conditions: read-out: mTORC IC50
T3 construct: purchased Invitrogen
T3 sequence (P42345 1360-2549 limits assumed): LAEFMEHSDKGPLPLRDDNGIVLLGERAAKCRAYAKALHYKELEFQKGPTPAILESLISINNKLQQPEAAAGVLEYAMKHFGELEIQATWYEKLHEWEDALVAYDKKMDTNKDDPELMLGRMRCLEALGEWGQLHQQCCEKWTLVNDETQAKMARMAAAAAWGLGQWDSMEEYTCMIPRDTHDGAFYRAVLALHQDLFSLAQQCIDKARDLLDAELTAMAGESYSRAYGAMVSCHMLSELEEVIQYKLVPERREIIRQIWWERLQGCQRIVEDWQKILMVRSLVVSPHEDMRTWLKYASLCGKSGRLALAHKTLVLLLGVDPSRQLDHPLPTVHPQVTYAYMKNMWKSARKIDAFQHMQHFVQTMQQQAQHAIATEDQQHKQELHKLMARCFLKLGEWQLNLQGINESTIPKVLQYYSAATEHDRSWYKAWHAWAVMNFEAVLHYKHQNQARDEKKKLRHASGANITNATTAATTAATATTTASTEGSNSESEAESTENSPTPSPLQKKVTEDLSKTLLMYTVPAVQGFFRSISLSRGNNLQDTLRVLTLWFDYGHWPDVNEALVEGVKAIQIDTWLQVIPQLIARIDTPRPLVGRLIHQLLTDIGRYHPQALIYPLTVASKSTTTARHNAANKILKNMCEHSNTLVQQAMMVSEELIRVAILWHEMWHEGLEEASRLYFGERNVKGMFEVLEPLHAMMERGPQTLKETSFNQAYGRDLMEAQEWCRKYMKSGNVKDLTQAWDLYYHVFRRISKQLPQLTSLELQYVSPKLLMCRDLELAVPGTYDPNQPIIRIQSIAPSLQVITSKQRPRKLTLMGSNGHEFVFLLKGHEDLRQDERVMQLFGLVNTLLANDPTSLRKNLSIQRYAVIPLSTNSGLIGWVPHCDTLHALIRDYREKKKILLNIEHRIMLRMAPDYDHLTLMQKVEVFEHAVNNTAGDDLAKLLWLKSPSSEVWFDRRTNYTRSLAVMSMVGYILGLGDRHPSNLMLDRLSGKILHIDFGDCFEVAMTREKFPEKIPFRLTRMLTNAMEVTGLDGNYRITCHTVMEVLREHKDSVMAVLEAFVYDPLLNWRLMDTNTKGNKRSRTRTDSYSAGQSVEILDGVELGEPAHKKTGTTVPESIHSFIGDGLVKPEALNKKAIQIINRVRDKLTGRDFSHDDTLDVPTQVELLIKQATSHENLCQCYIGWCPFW
Experimental: The cross-activity or lack thereof of one or more compounds of the present invention against mTor can be measured according to any procedures known in the art or methods disclosed below.
The compounds described herein can be tested against recombinant mTOR (Invitrogen) in an assay containing 50 mM HEPES, pH 7.5, 1 mM EGTA, 10 mM MgCl2, 2.5 mM, 0.01% Tween, 10 μM ATP (2.5 μCi of μ-32P-ATP), and 3 μg/mL BSA. Rat recombinant PHAS-1/4EBP1 (Calbiochem; 2 mg/mL) is used as a substrate. Reactions are terminated by spotting onto nitrocellulose, which is washed with 1M NaCl/1% phosphoric acid (approximately 6 times, 5-10 minutes each). Sheets are dried and the transferred radioactivity quantitated by phosphorimaging.
For instance, one can use Invitrogen's LanthaScreen™ Kinase assay to test the inhibitors of mTOR disclosed herein. This assay is a time resolved FRET platform that measures the phosphorylation of GFP labeled 4EBP1 by mTOR kinase. The kinase reaction is performed in a white 384 well microtiter plate. The total reaction volume is 20 ul per well and the reaction buffer composition is 50 mM HEPES pH7.5, 0.01% Polysorbate 20, 1 mM EGTA, 10 mM MnCl2, and 2 mM DTT. In the first step, each well receives 2 ul of test compound in 20% dimethylsulphoxide resulting in a 2% DMSO final concentration. […] The plate is sealed and incubated for 1 hour at room temperature. […] The plate is sealed, incubated for 1 hour at room temperature, and then read on a plate reader set up for LanthaScreen™ TR-FRET. Data is analyzed and IC50s are generated using GraphPad Prism 5.

PI3K β (p110β/p85α) = molecular target: T4, PI3K β (p110β/p85α) (Homo sapiens, UniProt P42338); test: PI 3-Kinase (human) HTRF assay, PI3K β; conditions: read-out: PI3K β IC50
T4 construct: purchased Upstate / Millipore Corporation
T4 sequence (P42338 whole entry): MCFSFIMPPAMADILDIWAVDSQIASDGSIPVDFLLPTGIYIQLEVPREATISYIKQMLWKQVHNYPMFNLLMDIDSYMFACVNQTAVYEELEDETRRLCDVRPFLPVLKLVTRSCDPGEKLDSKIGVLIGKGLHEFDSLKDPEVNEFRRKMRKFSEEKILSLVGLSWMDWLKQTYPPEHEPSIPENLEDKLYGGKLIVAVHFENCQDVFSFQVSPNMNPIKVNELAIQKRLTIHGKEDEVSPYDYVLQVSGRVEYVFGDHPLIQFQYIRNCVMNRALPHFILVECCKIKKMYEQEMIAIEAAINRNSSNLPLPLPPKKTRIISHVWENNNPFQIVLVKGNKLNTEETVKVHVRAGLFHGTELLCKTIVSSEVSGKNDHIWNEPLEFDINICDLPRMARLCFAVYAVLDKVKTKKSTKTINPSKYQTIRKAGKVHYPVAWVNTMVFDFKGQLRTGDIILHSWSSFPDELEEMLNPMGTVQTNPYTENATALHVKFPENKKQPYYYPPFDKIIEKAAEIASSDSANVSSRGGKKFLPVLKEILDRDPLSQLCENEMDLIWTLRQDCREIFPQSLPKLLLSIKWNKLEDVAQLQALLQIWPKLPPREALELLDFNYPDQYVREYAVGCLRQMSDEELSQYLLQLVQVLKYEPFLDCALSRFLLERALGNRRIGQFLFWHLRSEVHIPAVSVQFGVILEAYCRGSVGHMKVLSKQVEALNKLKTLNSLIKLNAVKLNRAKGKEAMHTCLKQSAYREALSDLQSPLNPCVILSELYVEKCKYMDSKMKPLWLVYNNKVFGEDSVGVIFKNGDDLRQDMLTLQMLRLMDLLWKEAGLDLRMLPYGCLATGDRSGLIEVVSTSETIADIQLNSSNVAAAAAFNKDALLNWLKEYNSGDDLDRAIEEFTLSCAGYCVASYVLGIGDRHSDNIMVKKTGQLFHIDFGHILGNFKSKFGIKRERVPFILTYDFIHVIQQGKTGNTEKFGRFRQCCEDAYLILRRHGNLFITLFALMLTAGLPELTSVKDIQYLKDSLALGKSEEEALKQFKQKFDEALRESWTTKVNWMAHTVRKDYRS
T4 sequence (P27986 whole entry partner): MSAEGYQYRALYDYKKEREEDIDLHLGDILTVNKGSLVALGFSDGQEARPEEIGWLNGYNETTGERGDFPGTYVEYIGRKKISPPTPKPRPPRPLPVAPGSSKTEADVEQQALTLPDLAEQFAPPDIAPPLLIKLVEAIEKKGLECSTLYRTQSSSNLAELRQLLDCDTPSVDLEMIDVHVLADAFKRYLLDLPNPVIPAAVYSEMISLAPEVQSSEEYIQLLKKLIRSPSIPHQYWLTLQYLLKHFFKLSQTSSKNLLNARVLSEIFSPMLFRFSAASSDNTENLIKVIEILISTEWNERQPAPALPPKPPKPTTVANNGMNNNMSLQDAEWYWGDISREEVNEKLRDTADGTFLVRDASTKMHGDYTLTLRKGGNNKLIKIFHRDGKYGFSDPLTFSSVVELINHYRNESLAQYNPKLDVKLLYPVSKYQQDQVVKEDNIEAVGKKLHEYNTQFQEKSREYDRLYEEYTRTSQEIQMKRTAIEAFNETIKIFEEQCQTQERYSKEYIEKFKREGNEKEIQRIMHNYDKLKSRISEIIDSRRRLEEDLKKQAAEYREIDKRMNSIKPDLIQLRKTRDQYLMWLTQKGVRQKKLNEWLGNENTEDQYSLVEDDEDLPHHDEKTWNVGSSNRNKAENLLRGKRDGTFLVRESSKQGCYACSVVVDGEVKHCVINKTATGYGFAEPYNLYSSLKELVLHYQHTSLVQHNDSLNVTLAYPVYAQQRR

PI3K γ (p110γ) = molecular target: T5, PI3K γ (p110γ) (Homo sapiens, UniProt P48736); test: PI 3-Kinase (human) HTRF assay, PI3K γ; conditions: read-out: PI3K γ IC50
T5 construct: purchased Upstate / Millipore Corporation

T1 sequence (P42336 whole entry): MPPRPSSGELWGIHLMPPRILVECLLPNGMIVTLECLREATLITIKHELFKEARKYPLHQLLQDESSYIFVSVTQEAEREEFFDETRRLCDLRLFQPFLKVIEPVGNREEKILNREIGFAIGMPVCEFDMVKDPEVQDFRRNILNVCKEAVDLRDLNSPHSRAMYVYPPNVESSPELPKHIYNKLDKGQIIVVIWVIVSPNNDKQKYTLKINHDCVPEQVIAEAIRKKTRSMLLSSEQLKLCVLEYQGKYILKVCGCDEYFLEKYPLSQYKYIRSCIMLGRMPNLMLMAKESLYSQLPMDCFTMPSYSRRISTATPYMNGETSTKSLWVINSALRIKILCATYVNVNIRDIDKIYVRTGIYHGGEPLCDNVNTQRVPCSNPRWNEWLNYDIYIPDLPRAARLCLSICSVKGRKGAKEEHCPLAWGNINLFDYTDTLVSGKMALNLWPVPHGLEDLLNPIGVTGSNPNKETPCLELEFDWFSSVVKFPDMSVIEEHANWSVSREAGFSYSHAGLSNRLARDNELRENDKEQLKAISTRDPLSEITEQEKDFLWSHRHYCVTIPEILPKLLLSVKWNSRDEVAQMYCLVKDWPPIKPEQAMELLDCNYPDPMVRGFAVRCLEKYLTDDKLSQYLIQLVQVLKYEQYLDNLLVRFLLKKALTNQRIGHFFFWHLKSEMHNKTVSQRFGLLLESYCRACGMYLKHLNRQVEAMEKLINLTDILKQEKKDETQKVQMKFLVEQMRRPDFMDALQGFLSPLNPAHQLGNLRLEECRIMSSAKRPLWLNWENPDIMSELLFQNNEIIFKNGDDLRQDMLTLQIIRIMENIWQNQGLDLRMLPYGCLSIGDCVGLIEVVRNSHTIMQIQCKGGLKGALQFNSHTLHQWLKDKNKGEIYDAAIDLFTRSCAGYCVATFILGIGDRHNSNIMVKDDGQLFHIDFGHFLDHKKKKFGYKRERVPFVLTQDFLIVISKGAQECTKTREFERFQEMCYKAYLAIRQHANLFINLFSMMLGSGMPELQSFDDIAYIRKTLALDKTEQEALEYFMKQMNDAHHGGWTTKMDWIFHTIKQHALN
T1 sequence (P27986 whole entry partner): as the sequence (P27986 whole entry partner) above

Question: `Nc1nc2ccc(-c3ccc4nccc(-c5ccncc5)c4c3)cc2s1` [Compound 3] was tested. Which IC50 (PI3K α (p110α/p85α)) did it give?
Answer: < 100 nM

Question: And the IC50 (PI3K δ)?
Answer: < 1000 nM

Question: What about the IC50 (mTOR) of the same compound?
Answer: < 1 µM

Question: What about the IC50 (PI3K β (p110β/p85α)) of the same compound?
Answer: > 10 µM

Question: What about the IC50 (PI3K γ (p110γ)) of the same compound?
Answer: < 1000 nM

Question: `Nc1ccc2cc(-c3ccc4nccc(-c5ccncc5)c4c3)ccc2n1` [Compound 5] was tested. Which IC50 (PI3K α (p110α/p85α)) did it give?
Answer: < 1000 nM

Question: And the IC50 (PI3K δ)?
Answer: < 10000 nM

Question: What about the IC50 (mTOR) of the same compound?
Answer: < 1 µM

Question: And the IC50 (PI3K β (p110β/p85α))?
Answer: > 10 µM

Question: What about the IC50 (PI3K γ (p110γ)) of the same compound?
Answer: < 1000 nM

Question: How did the IC50 (PI3K α (p110α/p85α)) turn out when `Nc1ncnc2ccc(-c3ccc4nccc(-c5ccncc5)c4c3)cc12` [Compound 8] was run?
Answer: < 10000 nM

Question: And the IC50 (mTOR)?
Answer: > 10 µM

Question: What about the IC50 (PI3K β (p110β/p85α)) of the same compound?
Answer: > 10 µM

Question: And the IC50 (PI3K γ (p110γ))?
Answer: < 1000 nM

Question: `Nc1ncc2cc(-c3ccc4nccc(-c5ccncc5)c4c3)ccc2n1` [Compound 9] was tested. Which IC50 (PI3K α (p110α/p85α)) did it give?
Answer: < 1000 nM

Question: And the IC50 (mTOR)?
Answer: > 10 µM

Question: And the IC50 (PI3K β (p110β/p85α))?
Answer: < 10 µM

Question: And the IC50 (PI3K γ (p110γ))?
Answer: < 1000 nM

Question: For `Nc1nc2cccc(-c3ccc4nccc(-c5ccncc5)c4c3)c2o1` [Compound 15], which IC50 (PI3K α (p110α/p85α)) is on record?
Answer: < 100 nM

Question: And the IC50 (PI3K δ)?
Answer: < 1000 nM

Question: What about the IC50 (mTOR) of the same compound?
Answer: < 0.1 µM

Question: What about the IC50 (PI3K β (p110β/p85α)) of the same compound?
Answer: < 0.1 µM

Question: Which results are given for `Cn1cc(-c2ccnc3ccc(-c4ccc5oc(N)nc5c4)cc23)cn1` [Compound 26]?
Answer: IC50 (PI3K α (p110α/p85α)): < 100 nM; IC50 (PI3K δ): < 100 nM; IC50 (mTOR): < 1 µM; IC50 (PI3K γ (p110γ)): < 100 nM

Question: Which IC50 (PI3K α (p110α/p85α)) does the source give for `Nc1nc2cc(-c3ccc4nccn4c3)ccc2o1` [Compound 40] here?
Answer: < 10000 nM

Question: What about the IC50 (PI3K δ) of the same compound?
Answer: > 10000 nM

Question: What about the IC50 (mTOR) of the same compound?
Answer: < 10 µM

Question: And the IC50 (PI3K γ (p110γ))?
Answer: < 10000 nM

Question: Which IC50 (PI3K α (p110α/p85α)) does the source give for `CN1CCN(C(=O)c2cnc3ccc(-c4ccc5oc(N)nc5c4)cn23)CC1` [Compound 44] here?
Answer: < 100 nM

Question: And the IC50 (PI3K δ)?
Answer: < 10000 nM

Question: What about the IC50 (mTOR) of the same compound?
Answer: < 10 µM

Question: What about the IC50 (PI3K γ (p110γ)) of the same compound?
Answer: < 10000 nM

Question: How did the IC50 (PI3K α (p110α/p85α)) turn out when `N#Cc1cnc2ccc(-c3ccc4oc(N)nc4c3)cc2c1-c1ccncc1` [Compound 46] was run?
Answer: < 100 nM

Question: What about the IC50 (PI3K δ) of the same compound?
Answer: < 100 nM

Question: What about the IC50 (mTOR) of the same compound?
Answer: < 0.1 µM

Question: And the IC50 (PI3K γ (p110γ))?
Answer: < 100 nM

Question: Which results are given for `Nc1nc2cc(-c3ccc4ncnc(OC5CCOCC5)c4c3)ccc2o1` [Compound 47]?
Answer: IC50 (PI3K α (p110α/p85α)): < 100 nM; IC50 (PI3K δ): < 1000 nM; IC50 (mTOR): < 0.1 µM; IC50 (PI3K β (p110β/p85α)): < 1 µM

Question: `Nc1nc2cc(-c3ccc4ncn(C5CCOCC5)c(=O)c4c3)ccc2o1` [Compound 55] was tested. Which IC50 (PI3K α (p110α/p85α)) did it give?
Answer: < 1000 nM

Question: What about the IC50 (PI3K δ) of the same compound?
Answer: > 10000 nM

Question: What about the IC50 (mTOR) of the same compound?
Answer: > 10 µM

Question: What about the IC50 (PI3K γ (p110γ)) of the same compound?
Answer: > 10000 nM

Question: For `CC(=O)N1CCC(Nc2ncnc3ccc(-c4ccc5oc(N)nc5c4)cc23)CC1` [Compound 60], which IC50 (PI3K α (p110α/p85α)) is on record?
Answer: < 100 nM

Question: What about the IC50 (PI3K δ) of the same compound?
Answer: < 1000 nM

Question: What about the IC50 (mTOR) of the same compound?
Answer: < 1 µM

Question: And the IC50 (PI3K β (p110β/p85α))?
Answer: < 10 µM

Question: What about the IC50 (PI3K γ (p110γ)) of the same compound?
Answer: < 100 nM

Question: `Nc1nc2cc(-c3ccn4ncc(-c5ccncc5)c4n3)ccc2o1` [Compound 62] was tested. Which IC50 (PI3K α (p110α/p85α)) did it give?
Answer: < 100 nM

Question: And the IC50 (PI3K δ)?
Answer: < 100 nM

Question: And the IC50 (mTOR)?
Answer: < 0.1 µM

Question: What about the IC50 (PI3K β (p110β/p85α)) of the same compound?
Answer: < 0.1 µM

Question: And the IC50 (PI3K γ (p110γ))?
Answer: < 100 nM

Question: Which IC50 (PI3K α (p110α/p85α)) does the source give for `Nc1nc2cc(-c3ccc4ncc(=O)[nH]c4c3)ccc2o1` [Compound 72] here?
Answer: < 100 nM

Question: And the IC50 (PI3K δ)?
Answer: > 10000 nM

Question: And the IC50 (mTOR)?
Answer: < 1 µM

Question: What about the IC50 (PI3K β (p110β/p85α)) of the same compound?
Answer: < 1 µM

Question: What about the IC50 (PI3K γ (p110γ)) of the same compound?
Answer: < 100 nM

Question: `CC(C)N1CCC(n2cnc3ccc(-c4ccc5oc(N)nc5c4)cc3c2=O)CC1` [Compound 74] was tested. Which IC50 (PI3K α (p110α/p85α)) did it give?
Answer: < 100 nM

Question: What about the IC50 (PI3K δ) of the same compound?
Answer: > 10000 nM

Question: And the IC50 (mTOR)?
Answer: < 10 µM

Question: What about the IC50 (PI3K β (p110β/p85α)) of the same compound?
Answer: < 10 µM

Question: What about the IC50 (PI3K γ (p110γ)) of the same compound?
Answer: < 10000 nM

Question: For `Nc1nc2cc(-c3ccc4ncc(-c5cccnc5)nc4c3)ccc2o1` [Compound 76], which IC50 (PI3K α (p110α/p85α)) is on record?
Answer: < 100 nM

Question: And the IC50 (PI3K δ)?
Answer: > 10000 nM

Question: What about the IC50 (mTOR) of the same compound?
Answer: < 10 µM

Question: And the IC50 (PI3K β (p110β/p85α))?
Answer: > 10 µM

Question: And the IC50 (PI3K γ (p110γ))?
Answer: < 1000 nM

Question: Which results are given for `N#Cc1cnc2ccc(-c3ccc4oc(N)nc4c3)cc2c1` [Compound 93]?
Answer: IC50 (PI3K α (p110α/p85α)): < 1000 nM; IC50 (PI3K δ): > 10000 nM; IC50 (mTOR): < 10 µM; IC50 (PI3K β (p110β/p85α)): > 10 µM; IC50 (PI3K γ (p110γ)): < 1000 nM

Question: `CCOC(=O)N1CCN(c2cnc3ccc(-c4ccc5oc(N)nc5c4)cc3n2)CC1` [Compound 119] was tested. Which IC50 (PI3K α (p110α/p85α)) did it give?
Answer: < 100 nM

Question: And the IC50 (PI3K δ)?
Answer: < 10000 nM

Question: What about the IC50 (mTOR) of the same compound?
Answer: < 10 µM

Question: What about the IC50 (PI3K β (p110β/p85α)) of the same compound?
Answer: < 10 µM

Question: And the IC50 (PI3K γ (p110γ))?
Answer: < 10000 nM

Question: Which results are given for `Nc1nc2cc(-c3ccc4ncc(N5CCN(C(=O)[C@@H]6CCCN6)CC5)nc4c3)ccc2o1` [Compound 121]?
Answer: IC50 (PI3K α (p110α/p85α)): < 100 nM; IC50 (PI3K δ): < 100 nM; IC50 (mTOR): > 10 µM; IC50 (PI3K β (p110β/p85α)): < 0.1 µM; IC50 (PI3K γ (p110γ)): < 100 nM

Question: What does the source list for `CS(=O)(=O)N1CCN(Cc2cc3nc(-c4ccc5oc(N)nc5c4)nc(N4CCOCC4)c3s2)CC1` [Compound 129]?
Answer: IC50 (PI3K α (p110α/p85α)): < 100 nM; IC50 (PI3K δ): < 1000 nM; IC50 (mTOR): < 1 µM; IC50 (PI3K β (p110β/p85α)): < 1 µM; IC50 (PI3K γ (p110γ)): < 100 nM

Question: How did the IC50 (PI3K α (p110α/p85α)) turn out when `Nc1nc2cc(-c3ccc4ncc(NCCN5CCOCC5)nc4c3)ccc2o1` [Compound 133] was run?
Answer: < 100 nM

Question: And the IC50 (PI3K δ)?
Answer: < 1000 nM

Question: And the IC50 (mTOR)?
Answer: > 10 µM

Question: And the IC50 (PI3K β (p110β/p85α))?
Answer: < 1 µM

Question: What about the IC50 (PI3K γ (p110γ)) of the same compound?
Answer: < 1000 nM

Question: With `Nc1nc2cc(-c3ccc4ncc(N5CCNC(=O)C5)nc4c3)ccc2o1` [Compound 135] as the compound, how does the IC50 (PI3K α (p110α/p85α)) read?
Answer: < 100 nM

Question: What about the IC50 (PI3K δ) of the same compound?
Answer: > 10000 nM

Question: What about the IC50 (mTOR) of the same compound?
Answer: > 10 µM

Question: And the IC50 (PI3K β (p110β/p85α))?
Answer: < 1 µM

Question: And the IC50 (PI3K γ (p110γ))?
Answer: < 1000 nM

Question: What does the source list for `CC(=O)N1CCC(N(C)c2ncnc3ccc(-c4ccc5oc(N)nc5c4)cc23)CC1` [Compound 137]?
Answer: IC50 (PI3K α (p110α/p85α)): < 100 nM; IC50 (PI3K δ): < 1000 nM; IC50 (mTOR): > 10 µM; IC50 (PI3K β (p110β/p85α)): < 1 µM
